Test results as given in US9028856B2, “Synergistic pesticide compositions” (priority 2008, dated 2015).

Legend:
[1] = test system: bait averse/resistant German cockroach (T-164 strain); test: Knockdown/mortality of male cockroaches under continuous exposure on treated glazed tile; assay type: in vivo, Blattella germanica; parameters: Average % Knockdown & Mortality after 5 hr / Average % Knockdown & Mortality after 30 min: concentration or dose not given beside the values; details: for toxicity / efficacy of the substance alone (summary in words): German cockroach T-164, treated glazed tile; for Average % Knockdown & Mortality after 45 min: Table 24, imidacloprid/dibutyl sebacate (DBS) in acetone, T-164 strain
[2] = test system: Argentine ant, Linepithema humile; test: Knockdown/mortality of ant workers under continuous exposure on treated glazed tile; details: for toxicity / efficacy of the substance alone (summary in words): Argentine ant, treated glazed tile
Experimental: (§1) Solutions of imidacloprid at 0.5% AI were prepared with and without methyl oleate @0.1, 1.0 and 5.0% in acetone. Treatments were applied using a micropipette to dispense 1 ml of test solution evenly on a 6″×6″ glazed tile. Actual coverage was about 5″×5″ (or 161 cm^2) for easy handling. Treatments were allowed to dry overnight. Ten Argentine ant workers were placed within a fluon or talc-coated PVC ring (φ7.6 cm×H 5.1 cm) under continuous exposure. A small vial filled with a cotton ball soaked in water was added as a drinking source after 3 hours. Treatments were replicated a minimum of three times. Evaluations for ant knockdown/mortality were made at various intervals and at 24 hours after exposure.
as §1, with “MATERIALS AND METHODS: Solutions” for “Solutions”, “linoleate” for “oleate”
as §1, with “MATERIALS AND METHODS: Solutions of” for “Solutions of”, “without methyl palmitate @0.1, 1.0” for “without methyl oleate @0.1, 1.0”, “after exposure. […]” for “after exposure.”

[3] = Table 15 (Ex. 12), glazed tile, continuous exposure
[4] = Table 15 (Ex. 12), glazed tile, continuous exposure, listed as Butylated hydroxyanisole (BHA) (1%)
[5] = Table 15 (Ex. 12), glazed tile, continuous exposure, listed as Butylated hydroxyanisole (BHA) (5%)
[6] = Table 14 (Ex. 11), glazed tile, continuous exposure
[7] = Table 16 (Ex. 13), glazed tile, continuous exposure, listed as Butylated hydroxytoluene (BHT) (1%)
[8] = Table 16 (Ex. 13), glazed tile, continuous exposure, listed as Butylated hydroxytoluene (BHT) (5%)
[9] = 2 hr, Table 25, imidacloprid/dibutyl sebacate (DBS) in acetone, glazed tile
[10] = 4 hr, Table 25, imidacloprid/dibutyl sebacate (DBS) in acetone, glazed tile
[11] = Table 10 (Ex. 7), glazed tile, continuous exposure, listed as Methyl Linoleate (1%)
[12] = Table 10 (Ex. 7), glazed tile, continuous exposure, listed as Methyl Linoleate (5%)
[13] = Table 8 (Ex. 5), glazed tile, continuous exposure, listed as Methyl Oleate (1%)
[14] = Table 8 (Ex. 5), glazed tile, continuous exposure, listed as Methyl Oleate (5%)
[15] = Table 7 (Ex. 4), glazed tile, continuous exposure, listed as Oleic acid (0.1%)
[16] = Table 7 (Ex. 4), glazed tile, continuous exposure, listed as Oleic acid (5%)

`COc1ccc(O)c(C(C)(C)C)c1` [BHA, butylated hydroxyanisole] was tested, and the “toxicity / efficacy of the substance alone (summary in words)” value (shortened to “toxicity / efficacy”) [1] was “at the high rate (5%) was toxic to the German cockroach, but not at its lower rates (1.0 and 0.1%)”, the “Average % Knockdown & Mortality after 30 min” value [1, 3] was 0% and the “Average % Knockdown & Mortality after 1 hr” value [1, 3] was 0%. For the same molecule, the “Average % Knockdown & Mortality after 24 hr” value ([1]; Table 15 (Ex. 12), glazed tile, continuous exposure, listed as Butylated hydroxyanisole (BHA) (0.1%)) was 20%, the “Average % Knockdown & Mortality after 2 hr” value [1, 4] was 0% and the “Average % Knockdown & Mortality after 4 hr” value [1, 4] was 0%. The “Average % Knockdown & Mortality after 24 hr” value [1, 4] was 0%, the “Average % Knockdown & Mortality after 2 hr” value [1, 5] was 20% and the “Average % Knockdown & Mortality after 4 hr” value [1, 5] was 20%. The “Average % Knockdown & Mortality after 24 hr” value [1, 5] was 73%, the “toxicity / efficacy” value [2] was “delayed toxicity” and the “Average % Knockdown & Mortality after 1 hr” value [2, 6] was 0%. The “Average % Knockdown & Mortality after 2 hr” value [2, 6] was 0%, the “Average % Knockdown & Mortality after 30 min” value ([2]; Table 14 (Ex. 11), glazed tile, continuous exposure, UTC 63% at 24 hr) was 0% and the “Average % Knockdown & Mortality after 24 hr” value ([2]; Table 14 (Ex. 11), glazed tile, continuous exposure, UTC 63% at 24 hr, listed as Butylated hydroxyanisole (BHA) (0.1%)) was 37%. For the same molecule, the “Average % Knockdown & Mortality after 24 hr” value ([2]; Table 14 (Ex. 11), glazed tile, continuous exposure, UTC 63% at 24 hr, listed as Butylated hydroxyanisole (BHA) (1%)) was 40%, the “Average % Knockdown & Mortality after 24 hr” value ([2]; Table 14 (Ex. 11), glazed tile, continuous exposure, UTC 63% at 24 hr, listed as Butylated hydroxyanisole (BHA) (5%)) was 74% and the “Average % Knockdown & Mortality after 4 hr” value ([2]; Table 14 (Ex. 11), glazed tile, continuous exposure, listed as Butylated hydroxyanisole (BHA) (0.1%)) was 10%. The “Average % Knockdown & Mortality after 4 hr” value ([2]; Table 14 (Ex. 11), glazed tile, continuous exposure, listed as Butylated hydroxyanisole (BHA) (1%)) was 3% and the “Average % Knockdown & Mortality after 4 hr” value ([2]; Table 14 (Ex. 11), glazed tile, continuous exposure, listed as Butylated hydroxyanisole (BHA) (5%)) was 19%.
With `Cc1cc(C(C)(C)C)c(O)c(C(C)(C)C)c1` [BHT, butylated hydroxytoluene] the “toxicity / efficacy” value [1] was “not toxic”, the “Average % Knockdown & Mortality after 5 hr” value ([1]; Table 17 (Ex. 14), glazed tile, continuous exposure) was 0% and the “toxicity / efficacy” value [2] was “toxic”. For the same molecule, the “Average % Knockdown & Mortality after 18 hr” value ([2]; Table 16 (Ex. 13), glazed tile, continuous exposure, listed as Butylated hydroxytoluene (BHT) (0.1%)) was 7%, the “Average % Knockdown & Mortality after 2 hr” value [2, 7] was 3% and the “Average % Knockdown & Mortality after 18 hr” value [2, 7] was 3%. For the same molecule, the “Average % Knockdown & Mortality after 2 hr” value [2, 8] was 7% and the “Average % Knockdown & Mortality after 18 hr” value [2, 8] was 79%.
With `CCCCOC(=O)CCCCCCCCC(=O)OCCCC` [DBS (0.1%)] the “Average % Knockdown & Mortality after 45 min” value ([1]; glazed tile) was 0%, the “Average % Knockdown & Mortality after 2 hr” value [2, 9] was 0% and the “Average % Knockdown & Mortality after 4 hr” value [2, 10] was 9%.
With `CCCCOC(=O)CCCCCCCCC(=O)OCCCC` [DBS (1%)] the “Average % Knockdown & Mortality after 45 min” value ([1]; glazed tile) was 0%, the “Average % Knockdown & Mortality after 2 hr” value [2, 9] was 0% and the “Average % Knockdown & Mortality after 4 hr” value [2, 10] was 77%.
For `CCCCOC(=O)CCCCCCCCC(=O)OCCCC` [DBS (5%)], the “Average % Knockdown & Mortality after 45 min” value ([1]; glazed tile) was 0%, the “Average % Knockdown & Mortality after 2 hr” value [2, 9] was 100% and the “Average % Knockdown & Mortality after 4 hr” value [2, 10] was 100%.
`CCCCOC(=O)CCCCCCCCC(=O)OCCCC` [DBS, dibutyl sebacate] was tested, and the “toxicity / efficacy” value [1] was “not toxic to German cockroaches, except at its highest rate (5%)” and the “toxicity / efficacy” value [2] was “toxic to the Argentine ants, and the lower rates (0.1 & 1.0%) of DBS showed delayed toxicity”.
For `c1ccc(Cc2ccccc2)cc1` [Diphenyl methane, diphenyl methane], the “toxicity / efficacy” value [1] was “not toxic”, the “Average % Knockdown & Mortality after 3 hr” value ([1]; Table 21 (Ex. 18), glazed tile, continuous exposure) was 0% and the “toxicity / efficacy” value [2] was “not toxic”. The “Average % Knockdown & Mortality after 2 hr” value ([2]; Table 20 (Ex. 17), glazed tile, continuous exposure) was 0%, the “Average % Knockdown & Mortality after 4 hr” value ([2]; Table 20 (Ex. 17), glazed tile, continuous exposure, listed as Diphenyl methane (DPM) (0.1%)) was 13% and the “Average % Knockdown & Mortality after 4 hr” value ([2]; Table 20 (Ex. 17), glazed tile, continuous exposure, listed as Diphenyl methane (DPM) (5%)) was 0%.
In the case of `CCCCC/C=C\C/C=C\CCCCCCCC(=O)OC` [Methyl linoleate, methyl linoleate], the “toxicity / efficacy” value [1] is reported as “toxic”, the “Average % Knockdown & Mortality after 15 min” value ([1]; Table 11 (Ex. 8), glazed tile, continuous exposure) is reported as 0% and the “toxicity / efficacy” value [2] is reported as “at high rates (1 & 5%) was toxic”. The “Average % Knockdown & Mortality after 4 hr” value ([2]; Table 10 (Ex. 7), glazed tile, continuous exposure, listed as Methyl Linoleate (0.1%)) was 0%, the “Average % Knockdown & Mortality after 15 min” value [2, 11] was 0% and the “Average % Knockdown & Mortality after 4 hr” value [2, 11] was 7%. The “Average % Knockdown & Mortality after 15 min” value [2, 12] was 7% and the “Average % Knockdown & Mortality after 4 hr” value [2, 12] was 67%.
For `CCCCCCCC/C=C\CCCCCCCC(=O)OC` [Methyl oleate, methyl oleate], the “toxicity / efficacy” value [1] was “at the higher rates (1 & 5%) showed delayed toxic effect”, the “Average % Knockdown & Mortality after 15 min” value ([1]; Table 9 (Ex. 6), glazed tile, continuous exposure, listed as Methyl Oleate (1%)) was 0% and the “Average % Knockdown & Mortality after 15 min” value ([1]; Table 9 (Ex. 6), glazed tile, continuous exposure, listed as Methyl Oleate (5%)) was 7%. The “toxicity / efficacy” value [2] was “toxic”, the “Average % Knockdown & Mortality after 4 hr” value ([2]; Table 8 (Ex. 5), glazed tile, continuous exposure, listed as Methyl Oleate (0.1%)) was 13% and the “Average % Knockdown & Mortality after 15 min” value [2, 13] was 0%. For the same molecule, the “Average % Knockdown & Mortality after 4 hr” value [2, 13] was 55%, the “Average % Knockdown & Mortality after 15 min” value [2, 14] was 3% and the “Average % Knockdown & Mortality after 4 hr” value [2, 14] was 100%.
In the case of `CCCCCCCCCCCCCCCC(=O)OC` [Methyl palmitate, methyl palmitate], the “toxicity / efficacy” value [1] is reported as “not toxic”, the “Average % Knockdown & Mortality after 4 hr” value ([1]; Table 13 (Ex. 10), glazed tile, continuous exposure) is reported as 0% and the “toxicity / efficacy” value [2] is reported as “not toxic”. For the same molecule, the “Average % Knockdown & Mortality after 3 hr” value ([2]; Table 12 (Ex. 9), glazed tile, continuous exposure) was 0%, the “Average % Knockdown & Mortality after 7 hr” value ([2]; Table 12 (Ex. 9), glazed tile, continuous exposure, listed as Methyl Palmitate (1%)) was 0% and the “Average % Knockdown & Mortality after 7 hr” value ([2]; Table 12 (Ex. 9), glazed tile, continuous exposure, listed as Methyl Palmitate (5%)) was 7%.
With `CCCCCCCC/C=C\CCCCCCCC(=O)O` [Oleic acid] the “toxicity / efficacy” value [1] was “toxic to German cockroaches at the high rate (5%), but not toxic at the two low rates”, the “Average % Knockdown & Mortality after 15 min” value ([1]; Table 6 (Ex. 3), glazed tile, continuous exposure) was 0% and the “toxicity / efficacy” value [2] was “at the high rates (1 & 5%) was toxic to the Argentine ants, but not at the low rate (0.1%)”. For the same molecule, the “Average % Knockdown & Mortality after 3 hr” value [2, 15] was 0%, the “Average % Knockdown & Mortality after 7 hr” value [2, 15] was 0% and the “Average % Knockdown & Mortality after 3 hr” value ([2]; Table 7 (Ex. 4), glazed tile, continuous exposure, listed as Oleic acid (1%)) was 82%. The “Average % Knockdown & Mortality after 3 hr” value [2, 16] was 100% and the “Average % Knockdown & Mortality after 7 hr” value [2, 16] was 100%.
